How the values were obtained:
Assay type in all cases: functional, cell-based
SK-OV-3 = assay: Antiproliferative activity against human SK-OV-3 cells assessed as cell growth inhibition measured after 48 hrs by sulforhodamine B assay; settings: SK-OV-3, 48 h
OVCAR-4 = assay: Antiproliferative activity against human OVCAR-4 cells assessed as cell growth inhibition measured after 48 hrs by sulforhodamine B assay; settings: OVCAR-4, 48 h
OVCAR-3 = assay: Antiproliferative activity against human OVCAR-3 cells assessed as cell growth inhibition measured after 48 hrs by sulforhodamine B assay; settings: OVCAR-3, 48 h
OVCAR-5 = assay: Antiproliferative activity against human OVCAR-5 cells assessed as cell growth inhibition measured after 48 hrs by sulforhodamine B assay; settings: OVCAR-5, 48 h
COLO 205 = assay: Antiproliferative activity against human COLO 205 cells assessed as cell growth inhibition measured after 48 hrs by sulforhodamine B assay; settings: COLO 205, 48 h
Malme-3M = assay: Antiproliferative activity against human Malme-3M cells assessed as cell growth inhibition measured after 48 hrs by sulforhodamine B assay
SK-MEL-2 = assay: Antiproliferative activity against human SK-MEL-2 cells assessed as cell growth inhibition measured after 48 hrs by sulforhodamine B assay; settings: SK-MEL-2, 48 h
SNB-19 = assay: Antiproliferative activity against human SNB-19 cells assessed as cell growth inhibition measured after 48 hrs by sulforhodamine B assay; settings: SNB-19, 48 h
ACHN = assay: Antiproliferative activity against human ACHN cells assessed as cell growth inhibition measured after 48 hrs by sulforhodamine B assay
SK-MEL-5 = assay: Antiproliferative activity against human SK-MEL-5 cells assessed as cell growth inhibition measured after 48 hrs by sulforhodamine B assay; settings: SK-MEL-5, 48 h
SF-268 = assay: Antiproliferative activity against human SF-268 cells assessed as cell growth inhibition measured after 48 hrs by sulforhodamine B assay; settings: SF-268, 48 h
SK-MEL-28 = assay: Antiproliferative activity against human SK-MEL-28 cells assessed as cell growth inhibition measured after 48 hrs by sulforhodamine B assay; settings: SK-MEL-28, 48 h
HCC 2998 = assay: Antiproliferative activity against human HCC 2998 cells assessed as cell growth inhibition measured after 48 hrs by sulforhodamine B assay; settings: HCC 2998, 48 h
HOP-62 = assay: Antiproliferative activity against human HOP-62 cells assessed as cell growth inhibition measured after 48 hrs by sulforhodamine B assay; settings: HOP-62, 48 h
HT-29 [1] = assay: Antiproliferative activity against human HT-29 cells assessed as cell growth inhibition measured after 48 hrs in presence of uridine by SRB assay; settings: HT-29, 48 h
Hs-578T = assay: Antiproliferative activity against human Hs-578T cells assessed as cell growth inhibition measured after 48 hrs by sulforhodamine B assay
SF-539 = assay: Antiproliferative activity against human SF-539 cells assessed as cell growth inhibition measured after 48 hrs by sulforhodamine B assay; settings: SF-539, 48 h
SN12C = assay: Antiproliferative activity against human SN12C cells assessed as cell growth inhibition measured after 48 hrs by sulforhodamine B assay
UO-31 = assay: Antiproliferative activity against human UO-31 cells assessed as cell growth inhibition measured after 48 hrs by sulforhodamine B assay; settings: UO-31, 48 h
NCI/ADR-RES = assay: Antiproliferative activity against human NCI/ADR-RES cells assessed as cell growth inhibition measured after 48 hrs by sulforhodamine B assay
PC-3 = assay: Antiproliferative activity against human PC-3 cells assessed as cell growth inhibition measured after 48 hrs by sulforhodamine B assay; settings: PC-3, 48 h
MDA-MB-231 = assay: Antiproliferative activity against human MDA-MB-231/ATCC cells assessed as cell growth inhibition measured after 48 hrs by sulforhodamine B assay; settings: MDA-MB-231, 48 h
U-251 = assay: Antiproliferative activity against human U-251 cells assessed as cell growth inhibition measured after 48 hrs by sulforhodamine B assay; settings: U-251, 48 h
RPMI-8226 = assay: Antiproliferative activity against human RPMI-8226 cells assessed as cell growth inhibition measured after 48 hrs by sulforhodamine B assay; settings: RPMI-8226, 48 h
BT-549 = assay: Antiproliferative activity against human BT-549 cells assessed as cell growth inhibition measured after 48 hrs by sulforhodamine B assay; settings: BT-549, 48 h
MCF7 [2] = assay: Antiproliferative activity against human MCF7 cells assessed as cell growth inhibition measured after 48 hrs in presence of uridine by SRB assay; settings: MCF7, 48 h
TK-10 = assay: Antiproliferative activity against human TK-10 cells assessed as cell growth inhibition measured after 48 hrs by sulforhodamine B assay; settings: TK-10, 48 h
IGROV-1 = assay: Antiproliferative activity against human IGROV-1 cells assessed as cell growth inhibition measured after 48 hrs by sulforhodamine B assay; settings: IGROV-1, 48 h
MOLT-4 = assay: Antiproliferative activity against human MOLT-4 cells assessed as cell growth inhibition measured after 48 hrs by sulforhodamine B assay; settings: MOLT-4, 48 h
T47D = assay: Antiproliferative activity against human T47D cells assessed as cell growth inhibition measured after 48 hrs by sulforhodamine B assay
HCT-116 = assay: Antiproliferative activity against human HCT-116 cells assessed as cell growth inhibition measured after 48 hrs by sulforhodamine B assay; settings: HCT-116, 48 h
HT-1080 [3] = assay: Antiproliferative activity against human HT-1080 cells assessed as cell growth inhibition measured after 48 hrs by SRB assay; settings: HT-1080, 48 h
KM12 = assay: Antiproliferative activity against human KM12 cells assessed as cell growth inhibition measured after 48 hrs by sulforhodamine B assay; settings: KM12, 48 h
[4] = test system: Panel NCI-60 (60 carcinoma cell lines); assay: Antiproliferative activity against human Panel NCI-60 (60 carcinoma cell lines) assessed as cell growth inhibition measured after 48 hrs by SRB assay
M21 [5] = assay: Antiproliferative activity against human M21 cells assessed as cell growth inhibition measured after 48 hrs in presence of uridine by SRB assay; settings: M21, 48 h
UACC-257 = assay: Antiproliferative activity against human UACC-257 cells assessed as cell growth inhibition measured after 48 hrs by sulforhodamine B assay; settings: UACC-257, 48 h
A498 = assay: Antiproliferative activity against human A498 cells assessed as cell growth inhibition measured after 48 hrs by sulforhodamine B assay; settings: A498, 48 h
CAKI-1 = assay: Antiproliferative activity against human CAKI-1 cells assessed as cell growth inhibition measured after 48 hrs by sulforhodamine B assay; settings: CAKI-1, 48 h
[6] = test system: Panel leukemia (Carcinoma cell lines); assay: Antiproliferative activity against human Panel leukemia (Carcinoma cell lines) assessed as cell growth inhibition measured after 48 hrs by SRB assay
A549 = assay: Antiproliferative activity against human A549/ATCC cells assessed as cell growth inhibition measured after 48 hrs by sulforhodamine B assay; settings: A549, 48 h
NCI-H460 = assay: Antiproliferative activity against human NCI-H460 cells assessed as cell growth inhibition measured after 48 hrs by sulforhodamine B assay; settings: NCI-H460, 48 h
SF-295 = assay: Antiproliferative activity against human SF-295 cells assessed as cell growth inhibition measured after 48 hrs by sulforhodamine B assay; settings: SF-295, 48 h
NCI-H322M = assay: Antiproliferative activity against human NCI-H322M cells assessed as cell growth inhibition measured after 48 hrs by sulforhodamine B assay
MDA-MB-435 = assay: Antiproliferative activity against human MDA-MB-435 cells assessed as cell growth inhibition measured after 48 hrs by sulforhodamine B assay; settings: MDA-MB-435, 48 h
NCI-H23 = assay: Antiproliferative activity against human NCI-H23 cells assessed as cell growth inhibition measured after 48 hrs by sulforhodamine B assay; settings: NCI-H23, 48 h
NCI-H522 = assay: Antiproliferative activity against human NCI-H522 cells assessed as cell growth inhibition measured after 48 hrs by sulforhodamine B assay; settings: NCI-H522, 48 h
MCF7 [7] = assay: Antiproliferative activity against human MCF7 cells assessed as cell growth inhibition measured after 48 hrs by SRB assay; settings: MCF7, 48 h
M21 [8] = assay: Antiproliferative activity against human M21 cells assessed as cell growth inhibition measured after 48 hrs by SRB assay; settings: M21, 48 h
UACC-62 = assay: Antiproliferative activity against human UACC-62 cells assessed as cell growth inhibition measured after 48 hrs by sulforhodamine B assay; settings: UACC-62, 48 h
LOX IMVI = assay: Antiproliferative activity against human LOX IMVI cells assessed as cell growth inhibition measured after 48 hrs by sulforhodamine B assay
DU-145 = assay: Antiproliferative activity against human DU-145 cells assessed as cell growth inhibition measured after 48 hrs by sulforhodamine B assay; settings: DU-145, 48 h
HT-1080 [9] = assay: Antiproliferative activity against human HT-1080 cells assessed as cell growth inhibition measured after 48 hrs in presence of uridine by SRB assay; settings: HT-1080, 48 h
SW-620 = assay: Antiproliferative activity against human SW-620 cells assessed as cell growth inhibition measured after 48 hrs by sulforhodamine B assay; settings: SW-620, 48 h
SNB-75 = assay: Antiproliferative activity against human SNB-75 cells assessed as cell growth inhibition measured after 48 hrs by sulforhodamine B assay; settings: SNB-75, 48 h
HCT-15 = assay: Antiproliferative activity against human HCT-15 cells assessed as cell growth inhibition measured after 48 hrs by sulforhodamine B assay; settings: HCT-15, 48 h
[10] = test system: Panel colon (Carcinoma cell lines); assay: Antiproliferative activity against human Panel colon (Carcinoma cell lines) assessed as cell growth inhibition measured after 48 hrs by SRB assay
NCI-H226 = assay: Antiproliferative activity against human NCI-H226 cells assessed as cell growth inhibition measured after 48 hrs by sulforhodamine B assay; settings: NCI-H226, 48 h
786-0 = assay: Antiproliferative activity against human 786-0 cells assessed as cell growth inhibition measured after 48 hrs by sulforhodamine B assay; settings: 786-0, 48 h
K562 = assay: Antiproliferative activity against human K562 cells assessed as cell growth inhibition incubated for 48 hrs by sulforhodamine B assay; settings: K562, 48 h
M14 = assay: Antiproliferative activity against human M14 cells assessed as cell growth inhibition measured after 48 hrs by sulforhodamine B assay; settings: M14, 48 h
OVCAR-8 = assay: Antiproliferative activity against human OVCAR-8 cells assessed as cell growth inhibition measured after 48 hrs by sulforhodamine B assay; settings: OVCAR-8, 48 h
HOP-92 = assay: Antiproliferative activity against human HOP-92 cells assessed as cell growth inhibition measured after 48 hrs by sulforhodamine B assay; settings: HOP-92, 48 h
HT-29 [11] = assay: Antiproliferative activity against human HT-29 cells assessed as cell growth inhibition measured after 48 hrs by SRB assay; settings: HT-29, 48 h
CCRF-CEM = assay: Antiproliferative activity against human CCRF-CEM cells assessed as cell growth inhibition measured after 48 hrs by sulforhodamine B assay
SR = assay: Antiproliferative activity against human SR cells assessed as cell growth inhibition measured after 48 hrs by sulforhodamine B assay
RXF 393 = assay: Antiproliferative activity against human RXF 393 cells assessed as cell growth inhibition measured after 48 hrs by sulforhodamine B assay; settings: RXF 393, 48 h

CCNC(=O)Nc1ccc(S(=O)(=O)Oc2ccccc2CC)cc1
IC50 (SK-OV-3): 12.6 µM | IC50 (OVCAR-4): 22.4 µM | IC50 (OVCAR-3): 6.61 µM | IC50 (OVCAR-5): 22.9 µM | IC50 (COLO 205): 2.51 µM | IC50 (Malme-3M): 17.8 µM | IC50 (SK-MEL-2): 16.2 µM | IC50 (SNB-19): 3.63 µM | IC50 (ACHN): 1.58 µM | IC50 (SK-MEL-5): 2.45 µM | IC50 (SF-268): 2.88 µM | IC50 (SK-MEL-28): 11.7 µM | IC50 (HCC 2998): 17 µM | IC50 (HOP-62): 14.5 µM | IC50 (HT-29 [1]): 27 µM | IC50 (Hs-578T): 11.2 µM | IC50 (SF-539): 2.14 µM | IC50 (SN12C): 7.24 µM | IC50 (UO-31): 6.03 µM | IC50 (NCI/ADR-RES): 3.55 µM | IC50 (PC-3): 0.832 µM | IC50 (MDA-MB-231): 11.7 µM | IC50 (U-251): 0.617 µM | IC50 (RPMI-8226): 1.38 µM | IC50 (BT-549): 11.7 µM | IC50 (MCF7 [2]): 18 µM | IC50 (TK-10): 13.2 µM | IC50 (IGROV-1): 5.89 µM | IC50 (MOLT-4): 0.282 µM | IC50 (T47D): 16.2 µM | IC50 (HCT-116): 0.575 µM | IC50 (HT-1080 [3]): 0.45 µM | IC50 (KM12): 1.15 µM | IC50 [4]: 3.5 µM | IC50 (M21 [5]): 30 µM | IC50 (UACC-257): 13.2 µM | IC50 (A498): 5.89 µM | IC50 (CAKI-1): 0.759 µM | IC50 [6]: 0.81 µM | IC50 (A549): 0.955 µM | IC50 (NCI-H460): 0.427 µM | IC50 (SF-295): 0.759 µM | IC50 (NCI-H322M): 12.9 µM | IC50 (MDA-MB-435): 4.47 µM | IC50 (NCI-H23): 12.9 µM | IC50 (NCI-H522): 1.32 µM | IC50 (MCF7 [7]; read-out: IC50): 5.9 µM | IC50 (MCF7 [7]; read-out: pIC50 (converted)): 3.24 µM | IC50 (M21 [8]): 3 µM | IC50 (UACC-62): 2.51 µM | IC50 (LOX IMVI): 0.417 µM | IC50 (DU-145): 1.23 µM | IC50 (HT-1080 [9]): 7.4 µM | IC50 (SW-620): 2.75 µM | IC50 (SNB-75): 9.12 µM | IC50 (HCT-15): 0.251 µM | IC50 [10]: 1.5 µM | IC50 (NCI-H226): 9.33 µM | IC50 (786-0): 9.12 µM | IC50 (K562): 0.282 µM | IC50 (M14): 4.17 µM | IC50 (OVCAR-8): 0.851 µM | IC50 (HOP-92): 6.61 µM | IC50 (HT-29 [11]; read-out: IC50): 0.99 µM | IC50 (HT-29 [11]; read-out: pIC50 (converted)): 1.02 µM | IC50 (CCRF-CEM): 0.912 µM | IC50 (SR): 0.741 µM | IC50 (RXF 393): 12.6 µM

From ChEMBL document CHEMBL4715855, “N-phenyl ureidobenzenesulfonates, a novel class of promising human dihydroorotate dehydrogenase inhibitors” (Bioorg Med Chem, 2020)
